For one test, the system named is SU-DHL-2. Description: Cytotoxicity against human SUDHL2 cells assessed as inhibition of cell growth incubated for 48 hrs by CCK8 assay. The class given is functional, cell-based. To be noted: SU-DHL-2, 48 h.
The test system of test [1] is HL-60. Description: Cytotoxicity against human HL-60 cells assessed as inhibition of cell growth incubated for 48 hrs by CCK8 assay. The class given is functional, cell-based. To be noted: HL-60, 48 h.
For test [2], the system named is HL-60. The test is described as follows: Induction of cell cycle arrest in human HL-60 cells assessed as accumulation of G1 phase cells at 7 uM incubated for 48 hrs (reference value: 42.0%). The format is functional.
Test [3] concerns HL-60. The test is described as follows: Induction of cell cycle arrest in human HL-60 cells assessed as S phase cells at 7 uM incubated for 48 hrs (reference value: 32.3%). The class given is functional.
In test [4] the test system is HL-60. The test is described as follows: Induction of cell cycle arrest in human HL-60 cells assessed as G2 phase cells at 7 uM incubated for 48 hrs (reference value: 23.7%). The format is functional.
For test [5], the system named is HL-60. The test is described as follows: Induction of cell cycle arrest in human HL-60 cells assessed as accumulation of G1 phase cells at 14 uM incubated for 48 hrs (reference value: 42.0%). The class given is functional.
Test [6] relates to HL-60. Description: Induction of cell cycle arrest in human HL-60 cells assessed as S phase cells at 14 uM incubated for 48 hrs (reference value: 32.3%). The class given is functional.
The subject of test [7] is HL-60. The test is described as follows: Induction of cell cycle arrest in human HL-60 cells assessed as G2 phase cells at 14 uM incubated for 48 hrs (reference value: 23.7%). The format is functional.
Test [8] deals with HL-60. Description: Induction of apoptosis in human HL-60 cells assessed as viable cells at 7 uM incubated for 48 hrs by Annexin V-FITC/PI staining based flow cytometric analysis (reference value: 84.1%). The class given is functional. To be noted: read-out: Activity.
Test [9] has as its system HL-60. Description: Induction of apoptosis in human HL-60 cells assessed as early apoptotic cells at 7 uM incubated for 48 hrs by Annexin V-FITC/PI staining based flow cytometric analysis (reference value: 11.0%). The format is functional.
In test [10] the test system is HL-60. Description: Induction of apoptosis in human HL-60 cells assessed as late apoptotic cells at 7 uM incubated for 48 hrs by Annexin V-FITC/PI staining based flow cytometric analysis (reference value: 4.53%). The class given is functional.
The test system of test [11] is HL-60. Description: Induction of apoptosis in human HL-60 cells assessed as necrotic cells at 7 uM incubated for 48 hrs by Annexin V-FITC/PI staining based flow cytometric analysis (reference value: 0.39%). The format is functional.
The test system of test [12] is HL-60. The test is described as follows: Induction of apoptosis in human HL-60 cells assessed as viable cells at 14 uM incubated for 48 hrs by Annexin V-FITC/PI staining based flow cytometric analysis (reference value: 84.1%). The format is functional. To be noted: read-out: Activity.
For test [13], the system named is HL-60. The test is described as follows: Induction of apoptosis in human HL-60 cells assessed as early apoptotic cells at 14 uM incubated for 48 hrs by Annexin V-FITC/PI staining based flow cytometric analysis (reference value: 11.0%). The format is functional.
Test [14] relates to HL-60. Description: Induction of apoptosis in human HL-60 cells assessed as late apoptotic cells at 14 uM incubated for 48 hrs by Annexin V-FITC/PI staining based flow cytometric analysis (reference value: 4.53%). The format is functional.
Test [15] concerns HL-60. The test is described as follows: Induction of apoptosis in human HL-60 cells assessed as necrotic cells at 14 uM incubated for 48 hrs by Annexin V-FITC/PI staining based flow cytometric analysis (reference value: 0.39%). The class given is functional.
Test [16] relates to RAW264.7. Description: Antiinflammatory activity in mouse RAW264.7 cells assessed as inhibition of LPS-induced NO production preincubated with compound for 1 hrs followed by LPS stimulation and measured after 24 hrs by Griess reagent based method. The format is functional, cell-based.
Test [17] relates to RAW264.7. The test is described as follows: Antiinflammatory activity in LPS-induced mouse RAW264.7 cells assessed as reduction in COX2 mRNA expression at 5 to 20 uM incubated for 24 hrs by qRT-PCR analysis. The format is functional, cell-based. To be noted: dose 5-20 µM.
For test [18], the system named is RAW264.7. The test is described as follows: Antiinflammatory activity in LPS-induced mouse RAW264.7 cells assessed as reduction in iNOS mRNA expression at 5 to 20 uM incubated for 24 hrs by qRT-PCR analysis. The class given is functional, cell-based. To be noted: dose 5-20 µM.
The test system of test [19] is RAW264.7. The test is described as follows: Antiinflammatory activity in LPS-induced mouse RAW264.7 cells assessed as reduction in IL-1beta mRNA expression at 5 to 20 uM incubated for 24 hrs by qRT-PCR analysis. The conditions noted are these: dose 5-20 µM. The class given is functional, cell-based.
In test [20] the test system is RAW264.7. Description: Antiinflammatory activity in mouse RAW264.7 cells assessed as inhibition of LPS-induced nuclear translocation of NF-kappaB p65 preincubated with compound for 1 hrs followed by LPS stimulation and measured after 24 hrs by DAPI staining based immunofluorescence analysis. The format is functional, cell-based. The conditions noted are these: dose 5-20 µM, time 25.0 hrs.

Test [21] has as its system RAW264.7. The test is described as follows: Antiinflammatory activity in LPS-induced mouse RAW264.7 cells assessed as reduction in COX-2 protein expression by Western blot analysis. The class given is functional, cell-based. The conditions noted are these: dose 5-20 µM.

The record followed here is ChEMBL document CHEMBL5360585, “Spectasterols, Aromatic Ergosterols with 6/6/6/5/5, 6/6/6/6, and 6/6/6/5 Ring Systems from Aspergillus spectabilis” (J Nat Prod, 2023).

Structures are written as SMILES. Calls of active or inactive are those of the source. The calls are words filed in the database; no cut-off is given here.

As for `Cc1cc2c(c3c1C[C@@H](O)CC3)CC[C@@]1(C)[C@H]2CCC(=O)[C@@]1(C)/C=C/[C@H](C)C(C)C`, the results for the IC50 with SU-DHL-2, in the test on HL-60 [1] and with RAW264.7 [16] were 6.9 µM, 8.7 µM and 19.3 µM, respectively. Also, the Activity in the test with HL-60 [2] is on record as 53.9%; in the test with HL-60 [3], 24.7%; with HL-60 [4], 16.1%; in the test on HL-60 [5], 62.3%; in the test with HL-60 [6] it was 24.9%; in the test with HL-60 [7] it was 9.7%. Moreover, the Activity in the test with HL-60 [9] worked out at 12.1%; in the test on HL-60 [10], 11%; in the test on HL-60 [11], 0.57%; in the test with HL-60 [13] it was 21.9%; with HL-60 [14], 53.8%; with HL-60 [15] it was 2.95%. Further, the Activity entry in the test on RAW264.7 [20] and in the test with RAW264.7 [21] was “Dose-Dependent Effect” each time. Besides, the viability at 7 µM in the test with HL-60 [8] came out at 76.3%. The viability at 14 µM with HL-60 [12] came out at 21.3%. For the same compound, the outcome in the test with RAW264.7 [17], in the test with RAW264.7 [18] and with RAW264.7 [19] was Active.
